Read-outs that look alike come from different tables or passages of the source.
Columns and labels:
[1] = system: PKC substrates in Panc2.13 cells; assay: Global PKC activation (phosphorylated PKC substrates), Western blot, Panc2.13; type: cell-based; settings: Phospho-(Ser) PKC Substrate Antibody
Experimental: (§1) A549 lung cancer cells (˜3 million cells) were seeded in 10 cm tissue culture dishes and grown overnight. Cells were then treated with different drugs at indicated concentrations (see FIG. 9A for global activation of PKC and FIG. 10 for activation of PKC isoforms) for 30 minutes. Panc2.13 pancreatic cells (˜5 million) were seeded and treated as in FIG. 9B for global activation of PKC. Cell lysate preparation, protein quantitation, SDS-PAGE, and Western blotting procedures are described in Example 2. Primary antibodies used in this Example and later Examples of this application are shown in Table A. Western blot membranes were scanned using Odyssey® Imaging System (Licor Biosciences) if secondary antibodies Anti-mouse IgG Dylight 800 conjugate or Anti-rabbit IgG DyLight 680 conjugate (1:10000)(Cell signaling or similar IR 2nd antibodies from different vendors) were used. Alternatively, Imagequant LAS4000 (GE) was used to scan membranes if secondary antibodies Anti-mouse IgG HRP conjugate or Anti-rabbit IgG HRP conjugate (dilutions from 1:2000-1:10000) were used.

[2] = system: Panc2.13; assay: Proliferation assay (CellTiter Glo), Panc2.13; type: cell-based; settings: for Top inhibition %: 96 hours
Experimental: (§2) Briefly, cells at a density of 1,000-10,000 cells/well were seeded in 96-well plates and incubated at 37′C for 24 hours. A series of 9 different concentrations of compound stocks (500×) were created by 3-fold serial dilution in DMSO. These compounds were further diluted in culture media and then added to cells so that the final DMSO concentration was 0.2%. After 96 hours of incubation, 50 μL of CellTiter Glo reagent (Promega) was added to each well and luminescence was measured after 10 minutes using EnVision (PerkinElmer). […] The dose range for most compounds was 4.6 nM-30 μM. The dose ranges for some compounds were adjusted downward to 0.46 nM-3 μM or 0.08 nM-0.5 μM or 0.03 nM-0.2 μM. Luminescence from cells treated with […] alone was set as Max and % of inhibition was calculated as follows: Inhibition %=(Max-Sample value)/Max*100. Data was analyzed using XL-fit software (ID Business Solutions Ltd.) and EC50, relative EC50, and % of top inhibition were calculated. The results are shown in Tables 3-6 for pancreatic cancer, lung cancer, colon/gastric cancer, and leukemia cell lines.

[3] = system: PKC isoforms in A549 cells; assay: Activation of PKC isoforms, Western blot, A549; type: cell-based; settings: 30 minutes; for P-PKC (pan)(βII Ser660) and P-PKCα/β (Thr638/641): high levels already in DMSO treated cells
Experimental: as §1

[4] = system: A549 cells; assay: Soft agar colony formation assay; type: cell-based; settings: 7-10 days, 9-point dilution series
Experimental: To prepare the base agar layer (0.6%), melted 1.2% agar solution was mixed 1:1 (v/v) with 2×DMEM/20% FBS medium in a tube by inverting several times and 50 μL of the mixture was immediately transferred to a well in a 96-well flat-bottom microplate. The plate was placed at 4° C. for 30 minutes to allow the base agar layer to solidify. Then, the cell agar layer (agar 0.4%) was prepared by transferring 75 μL of the cell and agar mixture containing 1:1:1 (v/v/v) of 1.2% agar solution, 2×DMEM/20% FBS and cell suspension (0.4-4×10^5/mL) to each well of the plates so that each well contained 1000-10000 cells per well. The plates were placed at 4° C. for 15 minutes and then 75 μL of media were added to each well. After incubating the plates overnight in a CO2 incubator, 50 μL of media with or without 5× final concentrations of compounds were added to each well. Each compound was tested in 9-point 3-fold dilution series. The plates were incubated for 7-10 days at 37° C. At the end of incubation period, 28 μL of Calcein AM solution (5 μM) was added to the center of each well. The plates were incubated at 37° C. for 45 minutes before scanning on Acumen (TTP Labtech). Each compound was tested in triplicates. Data was analyzed and compound EC50s were calculated using GraphPad Prism 5.

[5] = system: H441; assay: Proliferation assay (CellTiter Glo), H441; type: cell-based; settings: for Top inhibition %: 96 hours
Experimental: as §2

[6] = system: PKC substrates in A549 cells; assay: Global PKC activation (phosphorylated PKC substrates), Western blot, A549; type: cell-based; settings: 30 minutes, Phospho-PKC substrate Motif MultiMab
Experimental: as §1

[7] = system: leukemia inhibitory factor (LIF); assay: Western blot of LIF in A549 cells; type: cell-based; settings: for protein levels of the leukemia inhibitory factor (LIF): Western blot, concentrations of Table 8, 48 hours
Experimental: Cancer cells (2-8 million cells) were seeded in 10 cm dishes and grown overnight. For A549 lung cancer cell line, about 3 million cells were seeded. Cells were then treated with different drugs at indicated concentrations (see Table 8) for a period of time up to 48 hours. Cells were lysed in 0.3-0.5 mL of RIPA buffer (Sigma) supplemented with protease inhibitors (Roche) and phosphatase inhibitors (Sigma). Lysates were assayed for protein concentration using BCA kit (Pierce). Normalized amount of lysates (20-30 μg protein/lane) were run on 4-12% NuPage gel (Life Technologies) and the proteins were transferred to the PVDF or nitrocellulose membrane using iBlot® Transfer Stack (Life Technologies). The membranes were probed with primary antibodies shown in Table 8 at 4° C. overnight after blocking with 1×TBST containing 5% non-fat milk. Antibodies from other vendors could also be used in Western blot analysis. After washing 5 times with 1×TBS containing 0.1% Tween20, the membranes were probed with 2nd antibodies Anti-mouse IgG Dylight 800 conjugate or Anti-rabbit IgG DyLight 680 conjugate (1:10000; Cell signaling or similar IR 2nd antibodies from different vendors) at room temperature for one hour. After washing 5 times, the membranes were scanned using Odyssey® Imaging System (Licor Biosciences).

[8] = system: PKCδ, PKCμ, c-Raf in xMiaPaCa-2, MiaPaCa-2, Panc6.03, Panc1; assay: Activation of PKC isoforms in pancreatic cancer cell lines, Western blot; type: cell-based
[9] = system: PKC isoforms in Panc2.13 cells; assay: Time course of activation of PKC isoforms in Panc2.13; type: cell-based; settings: extended periods (16 h and 24 h)
Experimental: Cells of pancreatic cancer cell line Panc2.13 were seeded as described above, and the cell confluence was between 40-80% the next day. […] Phosphorylation at multiple PKC isoforms, such as Ser744/748 or Ser916 for PKCμ, phosphorylation at Thr638/641 for PKCα/β, phosphorylation at Ser660 for PKCβII (pan-PKC), phosphorylation at Ser643/676 for PKCδ/θ, and phosphorylation at Thr505 for PKCδ, were detected.

[10] = system: MBT-2; assay: Anti-cell proliferative effects, MBT-2; type: cell-based, mouse
[11] = absolute EC50, 96 hours, read-out: Ab EC50
[12] = relative EC50, 96 hours, read-out: Re EC50

Structure (SMILES) | phosphorylation of PKC substrates (global activation of PKC) [1] | Top inhibition % [2] [%] | EC50 [2, 11] [µM] | EC50 [2, 12] [µM] | P-PKCδ (Thr505) and P-PKCδ/θ (Ser643/676) [3] | number of colonies formed in soft agar [4] | Top inhibition % [5] [%] | phosphorylation of PKC substrates (global activation of PKC) [6] | protein levels of the leukemia inhibitory factor (LIF) [7] | P-PKC (pan)(βII Ser660) and P-PKCα/β (Thr638/641) [3] | sensitivity to anti-cell proliferative effects [10] | also measured
CC(=O)OCC1=C[C@H]2[C@@H]3C(C)(C)[C@]3(OC(C)=O)C[C@@H](C)[C@]2(O)C2C=C(C)C(=O)[C@@]2(O)C1 (stereo partly shown) [Compound K-101E] | nearly no effect | 49.8 | > 30 | 0.044 | no effects | reduced the number of colonies | 49.1 | nearly no effect | did not affect |  |  | EC50 [5, 11]: > 30 µM; EC50 [5, 12]: 2.61 µM
CC(=O)O[C@@]12C[C@@H](C)[C@]3(O)C4C=C(C)C(=O)[C@@]4(O)CC(CO)=C[C@H]3[C@@H]1C2(C)C (stereo partly shown) [Compound K-101A, Prostratin] | induced dose-dependent phosphorylation | 43.4 | > 30 | 0.017 | dose-dependent increases | reduced the number of colonies | 42.1 | induced dose-dependent phosphorylation | dose-dependent reduction | no further increases | sensitive | phosphorylation of c-Raf at Ser338 [8]: induced phosphorylation; phosphorylations of PKCδ at Thr505 and PKCμ at Ser744/748 [8]: increased; EC50 ([5]; Homo sapiens, NCI-H441, absolute EC50, 96 hours, read-out: Ab EC50): > 30 µM; EC50 ([5]; Homo sapiens, NCI-H441, relative EC50, 96 hours, read-out: Re EC50): 0.32 µM; reducing the phosphorylation at Ser643/676 of PKCδ/θ ([9]; K101A 1 μM versus K102, K103): more potent; LIF protein level ([7]; 0.5 uM of K-101A): lowered
C/C=C(/C)C(=O)O[C@H]1C(C)=C[C@]23C(=O)[C@@H](C=C(CO)[C@@H](O)[C@]12O)[C@H]1[C@@H](C[C@H]3C)C1(C)C [Compound K-102, Ingenol-3-angelate, reference compound] | induced dose-dependent phosphorylation |  |  |  | dose-dependent increases | reduced the number of colonies |  | induced dose-dependent phosphorylation |  | no further increases | sensitive | phosphorylations of PKCδ at Thr505 and PKCμ at Ser744/748 ([8]; all four pancreatic cell lines, K101A 1 μM, K102 0.1 μM): increased; phosphorylation of c-Raf at Ser338 ([8]; pancreatic cell lines, K101A 1 μM, K102 0.1 μM): induced phosphorylation; reducing the phosphorylation at βII Ser660 of PKC (pan), to a lesser extent Thr638/641 of PKCα/β ([9]; K102 0.1 μM, K103 0.01 μM versus K101A): more potent

Source: patent US12502369B2, “Methods of cancer treatment” (K-GEN, INC., priority 2015, dated 2025)
